{"source": "patent US8741944B2", "about": "“Anti-infective agents against intracellular pathogens” (priority 2007, dated 2014)", "key": {"[1]": {"system": "EKVX (Non-Small Cell Lung Cancer)", "experiment": "NCI DTP tumor cell line screen (SRB), EKVX", "procedure": "(§1) For a typical screening experiment, cells are inoculated into 96 well microtiter plates in 100 μL at plating densities ranging from 5,000 to 40,000 cells/well depending on the doubling time of individual cell lines. After cell inoculation, the microtiter plates are incubated at 37° C., 5% CO2, 95% air and 100% relative humidity for 24 h prior to addition of experimental drugs.\n(§2) After 24 h, two plates of each cell line are fixed in situ with TCA, to represent a measurement of the cell population for each cell line at the time of drug addition (Tz). Experimental drugs are solubilized in dimethyl sulfoxide at 400-fold the desired final maximum test concentration and stored frozen prior to use. At the time of drug addition, an aliquot of frozen concentrate is thawed and diluted to twice the desired final maximum test concentration with complete medium containing 50 μg/ml gentamicin. Additional four, 10-fold or ½ log serial dilutions are made to provide a total of five drug concentrations plus control. Aliquots of 100 μl of these different drug dilutions are added to the appropriate microtiter wells already containing 100 μl of medium, resulting in the required final drug concentrations.\n(§3) Following drug addition, the plates are incubated for an additional 48 h at 37° C., 5% CO2, 95% air, and 100% relative humidity. For adherent cells, the assay is terminated by the addition of cold TCA. Cells are fixed in situ by the gentle addition of 50 μl of cold 50% (w/v) TCA (final concentration, 10% TCA) and incubated for 60 minutes at 4° C. The supernatant is discarded, and the plates are washed five times with tap water and air dried. Sulforhodamine B (SRB) solution (1001) at 0.4% (w/v) in 1% acetic acid is added to each well, and plates are incubated for 10 minutes at room temperature. After staining, unbound dye is removed by washing five times with 1% acetic acid and the plates are air dried. Bound stain is subsequently solubilized with 10 mM trizma base, and the absorbance is read on an automated plate reader at a wavelength of 515 nm. For suspension cells, the methodology is the same except that the assay is terminated by fixing settled cells at the bottom of the wells by gently adding 50 μl of 80% TCA (final concentration, 16% TCA). Using the seven absorbance measurements [time zero, (Tz), control growth, (C), and test growth in the presence of drug at the five concentration levels (Ti)], the percentage growth is calculated at each of the drug concentrations levels. Percentage growth inhibition is calculated as: [(Ti−Tz)/(C−Tz)]×100 for concentrations for which Ti>/=Tz [(Ti−Tz)/Tz]×100 for concentrations for which Ti<Tz\n(§4) Three dose response parameters are calculated for each experimental agent. […] The drug concentration resulting in total growth inhibition (TGI) is calculated from Ti=Tz. […] Values are calculated for each of these three parameters if the level of activity is reached; however, if the effect is not reached or is exceeded, the value for that parameter is expressed as greater or less than the maximum or minimum concentration tested."}, "[2]": {"system": "HT29 (Colon Cancer)", "experiment": "NCI DTP tumor cell line screen (SRB), HT29", "procedure": "as §1, §2, §3, §4"}, "[3]": {"system": "ACHN (Renal Cancer)", "experiment": "NCI DTP tumor cell line screen (SRB), ACHN", "procedure": "as §1, §2, §3, §4"}, "[4]": {"system": "TK-10 (Renal Cancer)", "experiment": "NCI DTP tumor cell line screen (SRB), TK-10", "procedure": "as §1, §2, §3, §4"}, "[5]": {"system": "T-47D (Breast Cancer)", "experiment": "NCI DTP tumor cell line screen (SRB), T-47D", "procedure": "as §1, §2, §3, §4"}, "[6]": {"system": "CAKI-1 (Renal Cancer)", "experiment": "NCI DTP tumor cell line screen (SRB), CAKI-1", "procedure": "as §1, §2, §3, §4"}, "[7]": {"system": "DU-145 (Prostate Cancer)", "experiment": "NCI DTP tumor cell line screen (SRB), DU-145", "procedure": "as §1, §2, §3, §4"}, "[8]": {"system": "HCT-116 (Colon Cancer)", "experiment": "NCI DTP tumor cell line screen (SRB), HCT-116", "procedure": "as §1, §2, §3, §4"}, "[9]": {"system": "UACC-62 (Melanoma)", "experiment": "NCI DTP tumor cell line screen (SRB), UACC-62", "procedure": "as §1, §2, §3, §4"}, "[10]": {"system": "OVCAR-5 (Ovarian Cancer)", "experiment": "NCI DTP tumor cell line screen (SRB), OVCAR-5", "procedure": "as §1, §2, §3, §4"}, "[11]": {"system": "SK-OV-3 (Ovarian Cancer)", "experiment": "NCI DTP tumor cell line screen (SRB), SK-OV-3", "procedure": "as §1, §2, §3, §4"}, "[12]": {"system": "RXF 393 (Renal Cancer)", "experiment": "NCI DTP tumor cell line screen (SRB), RXF 393", "procedure": "as §1, §2, §3, §4"}, "[13]": {"system": "COLO 205 (Colon Cancer)", "experiment": "NCI DTP tumor cell line screen (SRB), COLO 205", "procedure": "as §1, §2, §3, §4"}, "[14]": {"system": "SK-MEL-5 (Melanoma)", "experiment": "NCI DTP tumor cell line screen (SRB), SK-MEL-5", "procedure": "as §1, §2, §3, §4"}, "[15]": {"system": "MDA-MB-231/ATCC (Breast Cancer)", "experiment": "NCI DTP tumor cell line screen (SRB), MDA-MB-231/ATCC", "procedure": "as §1, §2, §3, §4"}}}
{"substance": "4-[5-(2-Phenanthrenyl)-3-(trifluoromethyl)-1H-pyrazol-1-yl]-phenyl -guanidine [Compound 71]", "values": [{"measurement": "GI50", "setting": "[1]", "value": 1.06, "unit": "µM"}, {"measurement": "TGI", "setting": "[1]", "value": "2.24E−06"}, {"measurement": "Percent Growth", "setting": "[1]; Log10 Concentration −5.0", "value": "−100", "unit": "%"}, {"measurement": "Percent Growth", "setting": "[1]; Log10 Concentration −7.0", "value": 63, "unit": "%"}, {"measurement": "Percent Growth", "setting": "[1]; Log10 Concentration −8.0", "value": 55, "unit": "%"}, {"measurement": "GI50", "setting": "[2]", "value": 1.5, "unit": "µM"}, {"measurement": "TGI", "setting": "[2]", "value": "2.83E−06"}, {"measurement": "Percent Growth", "setting": "[2]; Log10 Concentration −4.0", "value": "−99", "unit": "%"}, {"measurement": "Percent Growth", "setting": "[2]; Log10 Concentration −5.0", "value": "−100", "unit": "%"}, {"measurement": "Percent Growth", "setting": "[2]; Log10 Concentration −6.0", "value": 82, "unit": "%"}, {"measurement": "Percent Growth", "setting": "[2]; Log10 Concentration −7.0", "value": 91, "unit": "%"}, {"measurement": "Percent Growth", "setting": "[2]; Log10 Concentration −8.0", "value": 95, "unit": "%"}, {"measurement": "GI50", "setting": "[3]", "value": 1.67, "unit": "µM"}, {"measurement": "TGI", "setting": "[3]", "value": "3.15E−06"}, {"measurement": "Percent Growth", "setting": "[3]; Log10 Concentration −4.0", "value": "−22", "unit": "%"}, {"measurement": "Percent Growth", "setting": "[3]; Log10 Concentration −5.0", "value": "−91", "unit": "%"}, {"measurement": "Percent Growth", "setting": "[3]; Log10 Concentration −6.0", "value": 90, "unit": "%"}, {"measurement": "Percent Growth", "setting": "[3]; Log10 Concentration −8.0", "value": 80, "unit": "%"}, {"measurement": "GI50", "setting": "[4]", "value": 1.32, "unit": "µM"}, {"measurement": "TGI", "setting": "[4]", "value": "2.59E−06"}, {"measurement": "Percent Growth", "setting": "[4]; Log10 Concentration −4.0", "value": "−64", "unit": "%"}, {"measurement": "Percent Growth", "setting": "[4]; Log10 Concentration −5.0", "value": "−100", "unit": "%"}, {"measurement": "Percent Growth", "setting": "[4]; Log10 Concentration −6.0", "value": 71, "unit": "%"}, {"measurement": "Percent Growth", "setting": "[4]; Log10 Concentration −7.0", "value": 90, "unit": "%"}, {"measurement": "Percent Growth", "setting": "[4]; Log10 Concentration −8.0", "value": 78, "unit": "%"}, {"measurement": "GI50", "setting": "[5]", "value": "< 0.01", "unit": "µM"}, {"measurement": "TGI", "setting": "[5]", "value": "1.98E−06"}, {"measurement": "Percent Growth", "setting": "[5]; Log10 Concentration −4.0", "value": "−53", "unit": "%"}, {"measurement": "Percent Growth", "setting": "[5]; Log10 Concentration −5.0", "value": "−76", "unit": "%"}, {"measurement": "Percent Growth", "setting": "[5]; Log10 Concentration −6.0", "value": 32, "unit": "%"}, {"measurement": "Percent Growth", "setting": "[5]; Log10 Concentration −7.0", "value": 47, "unit": "%"}, {"measurement": "Percent Growth", "setting": "[5]; Log10 Concentration −8.0", "value": 36, "unit": "%"}, {"measurement": "GI50", "setting": "[6]", "value": 1.83, "unit": "µM"}, {"measurement": "TGI", "setting": "[6]", "value": "3.22E−06"}, {"measurement": "Percent Growth", "setting": "[6]; Log10 Concentration −4.0", "value": "−47", "unit": "%"}, {"measurement": "Percent Growth", "setting": "[6]; Log10 Concentration −5.0", "value": "−100", "unit": "%"}, {"measurement": "Percent Growth", "setting": "[6]; Log10 Concentration −6.0", "value": 103, "unit": "%"}, {"measurement": "Percent Growth", "setting": "[6]; Log10 Concentration −8.0", "value": 97, "unit": "%"}, {"measurement": "GI50", "setting": "[7]", "value": 1.55, "unit": "µM"}, {"measurement": "TGI", "setting": "[7]", "value": "2.89E−06"}, {"measurement": "Percent Growth", "setting": "[7]; Log10 Concentration −4.0", "value": "−100", "unit": "%"}, {"measurement": "Percent Growth", "setting": "[7]; Log10 Concentration −5.0", "value": "−100", "unit": "%"}, {"measurement": "Percent Growth", "setting": "[7]; Log10 Concentration −6.0", "value": 85, "unit": "%"}, {"measurement": "Percent Growth", "setting": "[7]; Log10 Concentration −8.0", "value": 72, "unit": "%"}, {"measurement": "GI50", "setting": "[8]", "value": 1.29, "unit": "µM"}, {"measurement": "TGI", "setting": "[8]", "value": "2.55E−06"}, {"measurement": "Percent Growth", "setting": "[8]; Log10 Concentration −4.0", "value": "−49", "unit": "%"}, {"measurement": "Percent Growth", "setting": "[8]; Log10 Concentration −5.0", "value": "−100", "unit": "%"}, {"measurement": "Percent Growth", "setting": "[8]; Log10 Concentration −6.0", "value": 68, "unit": "%"}, {"measurement": "Percent Growth", "setting": "[8]; Log10 Concentration −8.0", "value": 82, "unit": "%"}, {"measurement": "GI50", "setting": "[9]", "value": 1.44, "unit": "µM"}, {"measurement": "TGI", "setting": "[9]", "value": "2.74E−06"}, {"measurement": "Percent Growth", "setting": "[9]; Log10 Concentration −4.0", "value": "−60", "unit": "%"}, {"measurement": "Percent Growth", "setting": "[9]; Log10 Concentration −5.0", "value": "−100", "unit": "%"}, {"measurement": "Percent Growth", "setting": "[9]; Log10 Concentration −6.0", "value": 78, "unit": "%"}, {"measurement": "Percent Growth", "setting": "[9]; Log10 Concentration −7.0", "value": 83, "unit": "%"}, {"measurement": "GI50", "setting": "[10]", "value": 1.73, "unit": "µM"}, {"measurement": "TGI", "setting": "[10]", "value": "3.11E−06"}, {"measurement": "Percent Growth", "setting": "[10]; Log10 Concentration −4.0", "value": "−8", "unit": "%"}, {"measurement": "Percent Growth", "setting": "[10]; Log10 Concentration −5.0", "value": "−100", "unit": "%"}, {"measurement": "Percent Growth", "setting": "[10]; Log10 Concentration −6.0", "value": 97, "unit": "%"}, {"measurement": "Percent Growth", "setting": "[10]; Log10 Concentration −8.0", "value": 95, "unit": "%"}, {"measurement": "GI50", "setting": "[11]", "value": 1.43, "unit": "µM"}, {"measurement": "TGI", "setting": "[11]", "value": "2.94E−06"}, {"measurement": "Percent Growth", "setting": "[11]; Log10 Concentration −4.0", "value": "−30", "unit": "%"}, {"measurement": "Percent Growth", "setting": "[11]; Log10 Concentration −5.0", "value": "−85", "unit": "%"}, {"measurement": "Percent Growth", "setting": "[11]; Log10 Concentration −6.0", "value": 75, "unit": "%"}, {"measurement": "Percent Growth", "setting": "[11]; Log10 Concentration −7.0", "value": 91, "unit": "%"}, {"measurement": "TGI", "setting": "[12]; RXF 383", "value": "2.91E−06"}, {"measurement": "Percent Growth", "setting": "[12]; RXF 383, Log10 Concentration −4.0", "value": "−4", "unit": "%"}, {"measurement": "Percent Growth", "setting": "[12]; RXF 383, Log10 Concentration −6.0", "value": 53, "unit": "%"}, {"measurement": "Percent Growth", "setting": "[12]; RXF 383, Log10 Concentration −7.0", "value": 53, "unit": "%"}, {"measurement": "Percent Growth", "setting": "[12]; RXF 383, Log10 Concentration −8.0", "value": 42, "unit": "%"}, {"measurement": "GI50", "setting": "[13]", "value": 1.36, "unit": "µM"}, {"measurement": "TGI", "setting": "[13]", "value": "2.69E−06"}, {"measurement": "Percent Growth", "setting": "[13]; Log10 Concentration −4.0", "value": "−32", "unit": "%"}, {"measurement": "Percent Growth", "setting": "[13]; Log10 Concentration −6.0", "value": 73, "unit": "%"}, {"measurement": "Percent Growth", "setting": "[13]; Log10 Concentration −7.0", "value": 83, "unit": "%"}, {"measurement": "Percent Growth", "setting": "[13]; Log10 Concentration −8.0", "value": 95, "unit": "%"}, {"measurement": "GI50", "setting": "[14]", "value": 2.22, "unit": "µM"}, {"measurement": "TGI", "setting": "[14]", "value": "4.07E−06"}, {"measurement": "Percent Growth", "setting": "[14]; Log10 Concentration −4.0", "value": "−34", "unit": "%"}, {"measurement": "Percent Growth", "setting": "[14]; Log10 Concentration −6.0", "value": 116, "unit": "%"}, {"measurement": "Percent Growth", "setting": "[14]; Log10 Concentration −7.0", "value": 111, "unit": "%"}, {"measurement": "Percent Growth", "setting": "[14]; Log10 Concentration −8.0", "value": 97, "unit": "%"}, {"measurement": "TGI", "setting": "[15]", "value": "1.66E−06"}, {"measurement": "Percent Growth", "setting": "[15]; Log10 Concentration −4.0", "value": "−39", "unit": "%"}, {"measurement": "Percent Growth", "setting": "[15]; Log10 Concentration −5.0", "value": "−98", "unit": "%"}, {"measurement": "Percent Growth", "setting": "[15]; Log10 Concentration −6.0", "value": 27, "unit": "%"}, {"measurement": "Percent Growth", "setting": "[15]; Log10 Concentration −7.0", "value": 78, "unit": "%"}, {"measurement": "Percent Growth", "setting": "[15]; Log10 Concentration −8.0", "value": 47, "unit": "%"}]}
